Source: ChEMBL document CHEMBL1201862, “PubChem BioAssay data set” (2004)
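Each compound was tested at five concentrations against cells in 96-well plates for 48 hours. At the GI50, growth is halved.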 The source made the active and inactive calls. Rule as the data show it: active = GI50 up to about 1.1 µM and inactive = higher.

What was measured:
Test in all cases: NCI-60 cell line screen, 48 h
786-0 = tested on: 786-0
A549 = tested on: A549
ACHN = tested on: ACHN
BT-549 = tested on: BT-549
CAKI-1 = tested on: CAKI-1
CCRF-CEM = tested on: CCRF-CEM
COLO 205 = tested on: COLO 205
DLD-1 = tested on: DLD-1
DMS-114 = tested on: DMS-114
DMS-273 = tested on: DMS-273
DU-145 = tested on: DU-145
EKVX = tested on: EKVX
HCC 2998 = tested on: HCC 2998
HCT-116 = tested on: HCT-116
HCT-15 = tested on: HCT-15
HL-60 = tested on: HL-60
HOP-18 = tested on: HOP-18
HOP-62 = tested on: HOP-62
HOP-92 = tested on: HOP-92
HT-29 = tested on: HT-29
Hs-578T = tested on: Hs-578T
IGROV-1 = tested on: IGROV-1
K562 = tested on: K562
KM-20L2 = tested on: KM-20L2
KM12 = tested on: KM12
LOX IMVI = tested on: LOX IMVI
LXFL 529 = tested on: LXFL 529
M14 = tested on: M14
M19-MEL = tested on: M19-MEL
MCF7 = tested on: MCF7
MDA-MB-231 = tested on: MDA-MB-231
MDA-MB-435 = tested on: MDA-MB-435
MDA-N = tested on: MDA-N
MOLT-4 = tested on: MOLT-4
Malme-3M = tested on: Malme-3M
NCI-H226 = tested on: NCI-H226
NCI-H23 = tested on: NCI-H23
NCI-H460 = tested on: NCI-H460
NCI-H522 = tested on: NCI-H522
NCI/ADR-RES = tested on: NCI/ADR-RES
OVCAR-3 = tested on: OVCAR-3
OVCAR-4 = tested on: OVCAR-4
OVCAR-5 = tested on: OVCAR-5
OVCAR-8 = tested on: OVCAR-8
PC-3 = tested on: PC-3
RPMI-8226 = tested on: RPMI-8226
RXF 393 = tested on: RXF 393
RXF 631 = tested on: RXF 631
SF-268 = tested on: SF-268
SF-295 = tested on: SF-295
SF-539 = tested on: SF-539
SK-MEL-28 = tested on: SK-MEL-28
SK-MEL-2 = tested on: SK-MEL-2
SK-MEL-5 = tested on: SK-MEL-5
SK-OV-3 = tested on: SK-OV-3
SN12C = tested on: SN12C
SNB-19 = tested on: SNB-19
SNB-75 = tested on: SNB-75
SR = tested on: SR
SW-620 = tested on: SW-620
T47D = tested on: T47D
TK-10 = tested on: TK-10
U-251 = tested on: U-251
UACC-257 = tested on: UACC-257
UACC-62 = tested on: UACC-62
UO-31 = tested on: UO-31
XF498 = tested on: XF498

## COc1cc2c[n+](C)c3c4ccccc4ccc3c2cc1OC.COc1cc2cnc3c4ccccc4ccc3c2cc1OC
786-0
  GI50: 12.3 µM (inactive)
A549
  GI50: 2.54 µM (inactive)
ACHN
  GI50: 73.1 µM (inactive)
BT-549
  GI50: 6.85 µM (inactive)
CAKI-1
  GI50: 58.6 µM (inactive)
CCRF-CEM
  GI50: 6.47 µM (inactive)
COLO 205
  GI50: 2.86 µM (inactive)
DLD-1
  GI50: 31.3 µM (inactive)
DMS-114
  GI50: 2.31 µM (inactive)
DMS-273
  GI50: 2.88 µM (inactive)
DU-145
  GI50: 5.68 µM (inactive)
EKVX
  GI50: 2.2 µM (inactive)
HCC 2998
  GI50: 8.47 µM (inactive)
HCT-116
  GI50: 7.83 µM (inactive)
HCT-15
  GI50: > 100 µM
HL-60
  GI50: 42.7 µM (inactive)
HOP-18
  GI50: 23.3 µM (inactive)
HOP-62
  GI50: 19.1 µM (inactive)
HOP-92
  GI50: 10.6 µM (inactive)
HT-29
  GI50: 7.59 µM (inactive)
Hs-578T
  GI50: 2.31 µM (inactive)
IGROV-1
  GI50: 11.8 µM (inactive)
K562
  GI50: 9.55 µM (inactive)
KM-20L2
  GI50: 8.81 µM (inactive)
KM12
  GI50: 0.859 µM (active)
LOX IMVI
  GI50: 11.5 µM (inactive)
LXFL 529
  GI50: 2.21 µM (inactive)
M14
  GI50: 20.2 µM (inactive)
M19-MEL
  GI50: 3.85 µM (inactive)
MCF7
  GI50: 1.79 µM (inactive)
MDA-MB-231
  GI50: 2.79 µM (inactive)
MDA-MB-435
  GI50: 2.87 µM (inactive)
MDA-N
  GI50: 7.05 µM (inactive)
MOLT-4
  GI50: 1.46 µM (inactive)
Malme-3M
  GI50: 3.21 µM (inactive)
NCI-H226
  GI50: 13.1 µM (inactive)
NCI-H23
  GI50: 12.2 µM (inactive)
NCI-H460
  GI50: 11.6 µM (inactive)
NCI-H522
  GI50: 1.22 µM (inactive)
NCI/ADR-RES
  GI50: 10 µM (inactive)
OVCAR-3
  GI50: 4.13 µM (inactive)
OVCAR-4
  GI50: 21.7 µM (inactive)
OVCAR-5
  GI50: 17.3 µM (inactive)
OVCAR-8
  GI50: 12.1 µM (inactive)
PC-3
  GI50: 2.84 µM (inactive)
RPMI-8226
  GI50: 8.11 µM (inactive)
RXF 393
  GI50: 21.2 µM (inactive)
RXF 631
  GI50: 23 µM (inactive)
SF-268
  GI50: 0.592 µM (active)
SF-295
  GI50: 19.6 µM (inactive)
SF-539
  GI50: 10 µM (inactive)
SK-MEL-28
  GI50: 5.5 µM (inactive)
SK-MEL-2
  GI50: 9.82 µM (inactive)
SK-MEL-5
  GI50: 14.9 µM (inactive)
SK-OV-3
  GI50: 9.29 µM (inactive)
SN12C
  GI50: 2.84 µM (inactive)
SNB-19
  GI50: 3.94 µM (inactive)
SNB-75
  GI50: 3.54 µM (inactive)
SR
  GI50: 4.42 µM (inactive)
SW-620
  GI50: 4.34 µM (inactive)
T47D
  GI50: 3.14 µM (inactive)
TK-10
  GI50: 26.6 µM (inactive)
U-251
  GI50: 3.05 µM (inactive)
UACC-257
  GI50: 20 µM (inactive)
UACC-62
  GI50: 6.68 µM (inactive)
UO-31
  GI50: 66.1 µM (inactive)
XF498
  GI50: 5.69 µM (inactive)
